# Assay results taken from patent publication US20240376074A1, “NAMPT INHIBITORS AND USES THEREOF” (Remedy Plan, Inc., priority 2021, published 2024).
# Target: T1, NAMPT (Homo sapiens, UniProt P43490)
# T1 construct: purchased Abcam ab221819
# Assay: NAMPT Activity Assay (Abcam #ab221819)
# Type: biochemical
# Conditions: purified NAMPT, percent inhibition from OD450 nm; compound concentration not given
# Procedure: The NAMPT Activity Assay (Abcam #ab221819) was performed following manufacturers two-step reaction protocol. Briefly, compounds were added to a clear 96-well plate using the HP D300e Digital Dispenser. Purified NAMPT was added to all wells except the No NAMPT controls. Reaction Mix #1 was added to each well and the plate was incubated at 30*C for 1 hr followed by the addition of Reaction Mix #2. Absorbance was measured at OD450 nm using a multimode plate reader. Readings were recorded for 5 minutes and percent inhibition was calculated using: (1-(OD450 nm compound/OD450nm no drug))*100.
# T1 sequence (P43490 whole entry): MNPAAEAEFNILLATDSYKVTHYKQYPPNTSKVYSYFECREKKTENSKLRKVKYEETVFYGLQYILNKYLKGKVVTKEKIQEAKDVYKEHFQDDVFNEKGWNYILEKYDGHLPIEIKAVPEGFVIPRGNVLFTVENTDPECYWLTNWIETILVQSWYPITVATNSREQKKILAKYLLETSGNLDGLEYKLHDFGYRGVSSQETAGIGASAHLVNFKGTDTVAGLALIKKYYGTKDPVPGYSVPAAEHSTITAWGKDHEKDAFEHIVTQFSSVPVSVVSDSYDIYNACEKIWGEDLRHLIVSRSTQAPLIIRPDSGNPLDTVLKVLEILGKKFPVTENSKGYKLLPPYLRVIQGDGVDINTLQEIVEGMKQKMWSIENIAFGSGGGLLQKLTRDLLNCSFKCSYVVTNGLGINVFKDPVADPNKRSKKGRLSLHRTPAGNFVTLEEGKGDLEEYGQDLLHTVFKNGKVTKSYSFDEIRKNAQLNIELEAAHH
row,SMILES,NAMPT Inhibition Code*
1,"CC(=O)N(CC(F)F)c1ccc(-c2ccc(C(=O)NCCCc3cn[nH]c3)cn2)cc1Cl [I-T2108, 6-[4-[Acetyl(2,2-difluoroethyl)amino]-3-chloro-phenyl]-N-[3-(1H-pyrazol-4-yl)propyl]pyridine-3-carboxamide]",C (C = ≥66% inhibition)
2,"CC(=O)N(CC1CC1)c1ccc(-c2ccc(C(=O)NCCc3cn[nH]c3)cn2)cc1Cl [I-T2111, 6-[4-[Acetyl(cyclopropylmethyl)amino]-3-chloro-phenyl]-N-[2-(1H-pyrazol-4-yl)ethyl]pyridine-3-carboxamide]",C (C = ≥66% inhibition)
3,"CC(=O)N(CC1CC1)c1ccc(-c2ccc(C(=O)NCc3ccccc3)cn2)cc1Cl [I-T2113, 6-[4-[Acetyl(cyclopropylmethyl)amino]-3-chloro-phenyl]-N-benzyl-pyridine-3-carboxamide]",C (C = ≥66% inhibition)
4,"CC(=O)N(CC(F)F)c1ccc(-c2ccc(C(=O)NCCc3cn[nH]c3)cn2)cc1Cl [I-T2114, 6-[4-[Acetyl(2,2-difluoroethyl)amino]-3-chloro-phenyl]-N-[2-(1H-pyrazol-4-yl)ethyl]pyridine-3-carboxamide]",A (*A = <33% inhibition)
5,"CC(=O)N(CC1CC1)c1ccc(-c2ccc(C(=O)NCC3CCOC3)cn2)cc1Cl (centres unmarked) [I-T2115, 6-[4-[Acetyl(cyclopropylmethyl)amino]-3-chloro-phenyl]-N-(tetrahydrofuran-3-ylmethyl) pyridine-3-carboxamide]",A (*A = <33% inhibition)
6,"CC(=O)N(CC1CC1)c1ccc(-c2ccc(NC(=O)COc3cccnc3)cn2)cc1Cl [I-T2119, N-[6-[4-[acetyl(cyclopropylmethyl)amino]-3-chloro-phenyl]-3-pyridyl]-2-(3-pyridyloxy)-acetamide]",C (C = ≥66% inhibition)
7,"CC(=O)N(CC1CC1)c1ccc(-c2ccc(C(=O)NCc3ccc[nH]3)cn2)cc1Cl [I-T2121, 6-[4-[Acetyl(cyclopropylmethyl)amino]-3-chloro-phenyl]-N-(1H-pyrrol-2-ylmethyl)pyridine-3-carboxamide]",B (B = >33 to <66% inhibition)
8,"CC(=O)N(CC1CC1)c1ccc(-c2ccc(NC(=O)/C=C/c3cccnc3)cn2)cc1Cl [I-T2124, (E)-N-[6-[4-[acetyl(cyclopropylmethyl)amino]-3-chloro-phenyl]-3-pyridyl]-3-(3-pyridyl)prop-2-enamide]",C (C = ≥66% inhibition)
9,"CC(=O)N(CC1CC1)c1ccc(-c2ccc(C(=O)NCCCc3cc[nH]n3)cn2)cc1Cl [I-T2127, 6-[4-[Acetyl(cyclopropylmethyl)amino]-3-chloro-phenyl]-N-[3-(1H-pyrazol-3-yl)propyl]pyridine-3-carboxamide]",C (C = ≥66% inhibition)
10,"CC(=O)N(CC1CC1)c1ccc(-c2ccc(C(=O)NCCCn3ccnc3)cn2)cc1Cl [I-T2128, 6-[4-[Acetyl(cyclopropylmethyl)amino]-3-chloro-phenyl]-N-(3-imidazol-1-ylpropyl)pyridine-3-carboxamide]",C (C = ≥66% inhibition)
11,"CC(=O)N(CC1CC1)c1ccc(-c2ccc(C(=O)NCCc3cccnc3)cn2)cc1Cl [I-T2130, 6-[4-[Acetyl(cyclopropylmethyl)amino]-3-chloro-phenyl]-N-[2-(3-pyridyl)ethyl]pyridine-3-carboxamide]",C (C = ≥66% inhibition)
12,"CC(=O)N(CC1CC1)c1ccc(-c2ccc(C(=O)NCc3cc[nH]n3)cn2)cc1Cl [I-T2132, 6-[4-[Acetyl(cyclopropylmethyl)amino]-3-chloro-phenyl]-N-(1H-pyrazol-3-ylmethyl)pyridine-3-carboxamide]",A (*A = <33% inhibition)
13,"CC(=O)N(CC1CC1)c1ccc(-c2ccc(C(=O)Nc3ccc4[nH]cnc4c3)cn2)cc1Cl [I-T2137, 6-[4-[Acetyl(cyclopropylmethyl)amino]-3-chloro-phenyl]-N-(1H-benzimidazol-5-yl)pyridine-3-carboxamide]",C (C = ≥66% inhibition)
14,"CC(=O)N(CC1CC1)c1ccc(-c2ccc(C(=O)N3Cc4ccncc4C3)cn2)cc1Cl [I-T2138, N-[2-Chloro-4-[5-(1,3-dihydropyrrolo[3,4-c]pyridine-2-carbonyl)-2-pyridyl]phenyl]-N-(cyclopropylmethyl)acetamide]",A (*A = <33% inhibition)
15,"CC(=O)N(CC1CC1)c1ccc(-c2ccc(C(=O)Nc3cnc4nccn4c3)cn2)cc1Cl [I-T2140, 6-[4-[Acetyl(cyclopropylmethyl)amino]-3-chloro-phenyl]-N-imidazo[1,2-a]pyrimidin-6-yl-pyridine-3-carboxamide]",C (C = ≥66% inhibition)
16,"CC(=O)N(CC1CC1)c1ccc(-c2ccc(C(=O)NCc3cccnn3)cn2)cc1Cl [I-T2146, 6-[4-[Acetyl(cyclopropylmethyl)amino]-3-chloro-phenyl]-N-(pyridazin-3-ylmethyl)pyridine-3-carboxamide]",B (B = >33 to <66% inhibition)

row,SMILES,NAMPT Inhibition Code*
1,"CC(=O)N(CC1CC1)c1ccc(-c2ccc(C(=O)NCc3cncnc3)cn2)cc1Cl [I-T2147, 6-[4-[Acetyl(cyclopropylmethyl)amino]-3-chloro-phenyl]-N-(pyrimidin-5-ylmethyl)pyridine-3-carboxamide]",A (*A = <33% inhibition)
2,"CC(=O)N(CC1CC1)c1ccc(-c2ccc(C(=O)NCc3ccsc3)cn2)cc1Cl [I-T2149, 6-[4-[Acetyl(cyclopropylmethyl)amino]-3-chloro-phenyl]-N-(3-thienylmethyl)pyridine-3-carboxamide]",B (B = >33 to <66% inhibition)
3,"CC(=O)N(CC1CC1)c1ccc(-c2ccc(C(=O)NCCc3c[nH]cn3)cn2)cc1Cl [I-T2150, 6-[4-[Acetyl(cyclopropylmethyl)amino]-3-chloro-phenyl]-N-[2-(1H-imidazol-4-yl)ethyl]pyridine-3-carboxamide]",C (C = ≥66% inhibition)
4,"CC(=O)N(CC1CC1)c1ccc(-c2ccc(C(=O)NCc3c[nH]cn3)cn2)cc1Cl [I-T2151, 6-[4-[Acetyl(cyclopropylmethyl)amino]-3-chloro-phenyl]-N-(1H-imidazol-4-ylmethyl)pyridine-3-carboxamide]",A (*A = <33% inhibition)
5,"CC(=O)N(CC1CC1)c1ccc(-c2ccc(C(=O)NC3Cc4ccccc4C3)cn2)cc1Cl [I-T2152, 6-[4-[Acetyl(cyclopropylmethyl)amino]-3-chloro-phenyl]-N-indan-2-yl-pyridine-3-carboxamide]",B (B = >33 to <66% inhibition)
6,"CC(=O)N(CC1CC1)c1ccc(-c2ccc(C(=O)NC3Cc4ccc(Br)cc4C3)cn2)cc1Cl (centres unmarked) [I-T2153, 6-[4-[Acetyl(cyclopropylmethyl)amino]-3-chloro-phenyl]-N-(5-bromoindan-2-yl)pyridine-3-carboxamide]",A (*A = <33% inhibition)
7,"CC(=O)N(CC1CC1)c1ccc(-c2ccc(C(=O)NCc3cnccn3)cn2)cc1Cl [I-T2154, 6-[4-[Acetyl(cyclopropylmethyl)amino]-3-chloro-phenyl]-N-(pyrazin-2-ylmethyl)pyridine-3-carboxamide]",A (*A = <33% inhibition)
8,"CC(=O)N(CC(F)F)c1ccc(-c2ccc(C(=O)Nc3cnc4nccn4c3)cn2)cc1Cl [I-T2201, 6-[4-[Acetyl(2,2-difluoroethyl)amino]-3-chloro-phenyl]-N-imidazo[1,2-a]pyrimidin-6yl-pyridine-3-carboxamide]",C (C = ≥66% inhibition)
9,"CC(=O)N(CC(F)F)c1ccc(-c2ccc(C(=O)NCCc3cccnc3)cn2)cc1Cl [I-T2205, 6-[4-[Acetyl(2,2-difluoroethyl)amino]-3-chloro-phenyl]-N-[2-(3-pyridyl)ethyl]pyridine-3-carboxamide]",C (C = ≥66% inhibition)
10,"CC(=O)N(CC1CC1)c1ccc(-c2ccc(NC(=O)Cc3cccnc3)cn2)cc1Cl [I-T2267, N-[6-[4-[acetyl(cyclopropylmethyl)amino]-3-chloro-phenyl]-3-pyridyl]-2-(3-pyridyl)acetamide]",C (C = ≥66% inhibition)
11,"CC(=O)N(CC1CC1)c1ccc(-c2ccc(C(=O)NCCCc3cn[nH]c3)cn2)cc1Cl [I-T2269, 6-[4-[Acetyl(cyclopropylmethyl)amino]-3-chloro-phenyl]-N-[3-(1H-pyrazol-4-yl)propyl]pyridine-3-carboxamide]",C (C = ≥66% inhibition)
12,"CC(=O)N(CC1CC1)c1ccc(-c2ccc(C(=O)N3Cc4ccccc4C3)cn2)cc1Cl [I-T2270, N-[2-Chloro-4-[5-(isoindoline-2-carbonyl)-2-pyridyl]phenyl]-N-(cyclopropylmethyl)acetamide]",B (B = >33 to <66% inhibition)
13,"CC(=O)N(CC(F)F)c1ccc(-c2ccc(C(=O)NCc3ccccc3)cn2)cc1Cl [I-T2284, 6-[4-[Acetyl(2,2-difluoroethyl)amino]-3-chloro-phenyl]-N-benzyl-pyridine-3-carboxamide]",A (*A = <33% inhibition)
14,"CC(=O)N(CC(F)F)c1ccc(-c2ccc(C(=O)NCCCc3cc[nH]n3)cn2)cc1Cl [I-T2287, 6-[4-[Acetyl(2,2-difluoroethyl)amino]-3-chloro-phenyl]-N-[3-(1H-pyrazol-3-yl)propyl]pyridine-3-carboxamide]",C (C = ≥66% inhibition)
15,"CC(=O)N(CC(F)F)c1ccc(-c2ccc(C(=O)NCCCn3ccnc3)cn2)cc1Cl [I-T2288, 6-[4-[Acetyl(2,2-difluoroethyl)amino]-3-chloro-phenyl]-N-(3-imidazol-1-ylpropyl)pyridine-3-carboxamide]",C (C = ≥66% inhibition)
16,"CC(=O)N(CC1CC1)c1ccc(-c2ccc(NC(=O)C3CC3c3cccnc3)cn2)cc1Cl (centres unmarked) [I-T2289, N-[6-[4-[acetyl(cyclopropylmethyl)amino]-3-chloro-phenyl]-3-pyridyl]-2-(3-pyridyl)cyclo propanecarboxamide]",C (C = ≥66% inhibition)
